Experimental data from patent US11058661B2, “Compositions and methods for lowering triglycerides in a subject on concomitant statin therapy and having hsCRP levels of at least about 2 mg/L” (priority 2018, dated 2021).

Tests used:
[1] = test system: subjects with Age-Associated Memory Impairment (safety population); test: AAMI pilot study: safety and tolerability; assay type: in vivo, human
Description: All randomized subjects that received at least 1 dose of study medication were included in the Safety Population.
Safety evaluations were based on the safety population. Safety and tolerability were assessed in terms of AEs, vital signs, 12-lead ECG, clinical laboratory data, medical history, and study drug compliance. Safety and tolerability data were presented by treatment group.

[2] = test system: statin-treated patients with fasting TG ≥200 and <500 mg/dL; test: ANCHOR study, entire population: fasting TG; assay type: in vivo, human; conditions: 4 g/day
Description: A multi-center, placebo-controlled, randomized, double-blind, 12-week study is performed to evaluate the efficacy and safety of >96% E-EPA in patients with fasting triglyceride levels ≥200 mg/dl and <500 mg/dl despite statin therapy (the mean of two qualifying entry values needs to be ≥185 mg/dl and at least one of the values needs to be ≥200 mg/dl). The primary objective of the study is to determine the efficacy of >96% E-EPA 2 g daily and 4 g daily, compared to placebo, in lowering fasting TG levels in patients with high risk for cardiovascular disease and with fasting TG levels ≥200 mg/dL and <500 mg/dL, despite treatment to LDL-C goal on statin therapy.
The population for this study is men and women >18 years of age with a body mass index ≤45 kg/m^2 with fasting TG levels greater than or equal to 200 mg/dl and less than 500 mg/dl and on a stable does of statin therapy (with or without ezetimibe). The statin must be atorvastatin, rosuvastatin or simvastatin. The dose of statin must be stable for ≥4 weeks prior to the LDL-C/TG baseline qualifying measurement for randomization. The statin dose will be optimal such that the patients are at their LDL-C goal at the LDL-C/TG baseline qualifying measurements. The same statin at the same dose will be continued until the study ends. […]

**Q.** Which results are given for CC/C=C\C/C=C\C/C=C\C/C=C\C/C=C\CCCC(=O)OCC [Icosapent Ethyl, ethyl eicosapentaenoate]?
**A.** subjects with nausea Probably Related to the study drug ([1]; 1 g): One; subjects with nausea Possibly Related to the study drug ([1]; 1 g cohort): two; subjects with nausea Possibly Related to the study drug ([1]; 2 g cohort): one; subjects discontinued due to TEAEs ([1]; 2 g group): 2 subjects; SAE reported ([1]; 2 g group, judged unrelated to study drug): One; subjects with diarrhea Probably Related to the study drug ([1]; 4 g): Another subject; subjects with nausea Possibly Related to the study drug ([1]; 4 g cohort): two; TEAEs reported ([1]; all ethyl-EPA treatment groups, 6 weeks): 105 events; TEAEs Definitely Related to the study drug ([1]; all groups): No TEAEs; deaths during the study ([1]; all groups): no deaths; reduction of median TG from baseline compared with placebo [2]: 21.5%
